Literature values as cited in patent publication US10638758B2, “Heterocycle-containing amino acid compound and use thereof” (AICHI STEEL CORPORATION, priority 2015, dated 2020).

System: rice
Details: alkaline conditions; Non-Patent Document 2

O=C(O)[C@@H](NCC[C@H](O)C(=O)O)[C@@H](O)CN1CC[C@H]1C(=O)O [mugineic acid]
effect on the growth of graminaceous plants: dramatic effect
